From patent US20080214537A1, “BRIDGED PHENANTHRIDINES” (CARA THERAPEUTICS, INC., priority 2007, published 2008)

How the values were obtained:
[1] = molecular target: human CB2 receptor (hCB2) (Homo sapiens, UniProt P34972); experiment: cAMP assay (LANCE TR-FRET) in CHO-K1 cells expressing hCB2; assay type: cell-based; details: for Emax: CHO-K1, read-out: hCB2 % Max Range; for EC50: CHO-K1 cells stably expressing hCB2, intracellular cAMP, NKH-477 prestimulated, average of at least three replicates
Chain of human CB2 receptor (hCB2) (P34972 whole entry): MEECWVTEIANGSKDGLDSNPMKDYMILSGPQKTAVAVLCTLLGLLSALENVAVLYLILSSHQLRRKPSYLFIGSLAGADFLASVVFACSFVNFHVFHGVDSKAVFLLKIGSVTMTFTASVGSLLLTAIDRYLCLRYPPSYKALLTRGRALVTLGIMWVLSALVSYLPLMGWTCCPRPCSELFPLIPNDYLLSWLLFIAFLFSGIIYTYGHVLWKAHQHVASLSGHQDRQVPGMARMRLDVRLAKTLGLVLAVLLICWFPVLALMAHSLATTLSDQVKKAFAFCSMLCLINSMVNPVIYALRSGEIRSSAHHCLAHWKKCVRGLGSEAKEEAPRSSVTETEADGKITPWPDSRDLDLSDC
Protocol: (§1) The ability of compounds to act as agonists or inverse agonists at human CB2 and CB1 receptors (hCB2, hCB1, respectively) was determined by measuring changes in intracellular cAMP levels. Chinese Hamster Ovary (CHO-K1) cell lines stably expressing hCB2 (Genebank: X74328) or hCB1 (Genebank: X54937) were purchased from Euroscreen (Gosselies, Belgium).
(§2) Cell lines were grown in suspension in EX-CELL 302 CHO Serum-free medium (Sigma, catalog #14324C) supplemented with 1% Fetal Bovine Serum, glutamine and with or without non-essential amino-acids under 0.4 mg/mL G418 selection.
(§3) Receptor mediated responses were determined by measuring changes in intracellular cAMP using LANCE cAMP detection kit (catalog #AD0264, PerkinElmer, Wellesley, Mass.) based on time-resolved fluorescence resonance energy transfer (TR-FRET). Changes in cAMP were determined in cells pre-incubated with IBMX (isobutyl methylxanthine) and prestimulated with NKH-477 (a water soluble forskolin derivative, catalog #1603, Tocris, Ellisville, Mo.) to increase basal cAMP levels as detailed below.
(§4) On the day of the experiment, cells were spun at low speed for 5 min at room temperature. The supernatant was removed and cells were resuspended in stimulation buffer (Hanks Buffered Salt Solution/5 mM HEPES, containing 0.5 mM IBMX (catalog #17018, Sigma) and 0.02% BSA (PerkinElmer, catalog #CR84-100)). Cell clumps were removed by filtering through cell strainer 40 μm (BD Falcon, Discovery Labware, Bedford, Mass.) and diluted to 2×10^5 cells/mL. Antibody supplied with the LANCE cAMP immunoassay kit was then added according to the manufacturer's instructions. An aliquot of cells was taken for un-induced controls. To the remaining cells was added NKH-477 (a water soluble forskolin derivative, Tocris catalog #1603) to a final concentration of 2-8 μM. Cells were then incubated for either 25 or 30 min at room temperature prior to adding to Proxiplates containing test compounds (final DMSO concentration was less than 0.5%) with a Multidrop bulk dispenser, followed by a sixty minute incubation at room temperature. The response was stopped by addition of the detection mix supplied with the LANCE kit.
(§5) The reagents were allowed to equilibrate for three hours prior to reading on an Envision multi-mode detector (PerkinElmer). TR-FRET was measured using a 330-380 nm excitation filter, 615 and 665 nm emission filters, dichroic mirror 380 nm and Z=1 mm.
(§6) Cyclic AMP concentrations in each well were back-calculated from a cAMP standard curve run concurrently during each assay. Each plate contained 16 wells of forskolin stimulated cells and 16 wells of forskolin plus CP55,940-treated. CP55,940-treated cells were treated with CP55,940 (Tocris catalog #0949) at 1 μM and the maximal response was used as the full range (100%) standard. WIN55,212 (Tocris catalog #1038) was used as an internal standard. Concentrations of cAMP were expressed as a percent of the difference of these two groups of wells. Concentration-response data including EC50 (the concentration of compound producing 50% of the maximal response) and intrinsic activity (the percent maximal activation compared to full activation by CP55,940) were determined using a four-parameter non-linear regression algorithm (Xlfit equation 251, IDBS). Assays were performed with at least three replicates per compound and averaged results for the several compounds of the invention are shown in Table I.

[2] = molecular target: human CB1 receptor (hCB1) (Homo sapiens, UniProt P21554); experiment: cAMP assay (LANCE TR-FRET) in CHO-K1 cells expressing hCB1; assay type: cell-based; details: activity on hCB1 represents inverse agonism; for Emax: CHO-K1, percent of range defined by CP55,940 (1 μM = 100%), read-out: hCB1 % Max Range; for EC50: CHO-K1 cells stably expressing hCB1, intracellular cAMP, NKH-477 prestimulated
Chain of human CB1 receptor (hCB1) (P21554 whole entry): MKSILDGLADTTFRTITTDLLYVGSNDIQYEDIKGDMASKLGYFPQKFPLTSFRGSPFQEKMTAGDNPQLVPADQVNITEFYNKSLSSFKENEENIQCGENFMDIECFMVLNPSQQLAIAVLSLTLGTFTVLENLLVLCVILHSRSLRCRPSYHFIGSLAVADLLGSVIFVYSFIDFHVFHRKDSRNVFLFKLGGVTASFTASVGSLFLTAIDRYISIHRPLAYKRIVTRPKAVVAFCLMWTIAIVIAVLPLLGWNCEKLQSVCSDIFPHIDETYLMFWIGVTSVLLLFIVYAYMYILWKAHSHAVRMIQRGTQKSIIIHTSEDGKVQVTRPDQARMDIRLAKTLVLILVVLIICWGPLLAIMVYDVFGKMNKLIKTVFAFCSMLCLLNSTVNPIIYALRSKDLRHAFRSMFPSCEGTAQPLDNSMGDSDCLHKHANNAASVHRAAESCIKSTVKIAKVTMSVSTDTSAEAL
Protocol: as §1, §2, §3, §4, §5
as §6, with “IDBS).” for “IDBS). Assays were performed with at least three replicates per compound and averaged results for the several compounds of the invention are shown in Table I.”

[3] = intrinsic activity: percent maximal activation compared to full activation by CP55,940 (1 μM = 100%)

CN(C)S(=O)(=O)c1ccc2c(c1)C1C3CCC(C3)C1C(c1ccnn1C)N2 (centres unmarked) [(33), Bridged N,N-dimethyl-6-(1-methyl-1H-pyrazol-5-yl)-5,6,6a,7,8,9,10,10a-octahydrophenanthridine-2-sulfonamide]
Emax [1, 3]: 94.9%
EC50 [1]: 7.5 nM
Emax [2]: < 40%
EC50 [2]: > 10000 nM

CCCCc1nnc(-c2ccc3c(c2)C2C4CCC(C4)C2C(c2ccccc2)N3)o1 (centres unmarked) [(45), Bridged 2-butyl-5-(6-phenyl-5,6,6a,7,8,9,10,10a-octahydrophenanthridin-2-yl)-1,3,4-oxadiazole]
Emax [1, 3]: 96.8%
EC50 [1]: 70.4 nM
Emax [2]: < 40%
EC50 [2]: > 10000 nM

Cn1nccc1C1Nc2ccc(S(=O)(=O)N3CCCC3)cc2C2C3CCC(C3)C12 (centres unmarked) [(42), Bridged 6-(1-methyl-1H-pyrazol-5-yl)-2-(pyrrolidin-1-ylsulfonyl)-5,6,6a,7,8,9,10,10a-octahydrophenanthridine]
Emax [1, 3]: 100%
EC50 [1]: 0.91 nM
Emax [2]: < 40%
EC50 [2]: > 10000 nM

CC(=O)Nc1ccc2c(c1)C1C3CCC(C3)C1C(c1ccc(C)cc1)N2 (single isomer, unassigned) [(25b), Bridged N-(6-p-tolyl-5,6,6a,7,8,9,10,10a-octahydrophenanthridin-2-yl)acetamide]
EC50 [1]: > 10000 nM
hCB2 % Max Range [1, 3]: N/A (N/A: Response <40% assay range)
EC50 [2]: 3540 nM
hCB1 % Max Range ([2]; percent of range defined by CP55,940 (1 μM = 100%)): 107%

NS(=O)(=O)c1ccc2c(c1)C1C3CCC(C3)C1C(c1ccccc1)N2 (centres unmarked) [(39), Bridged 6-phenyl-5,6,6a,7,8,9, 10,10a-octahydrophenanthridine-2-sulfonamide]
Emax [1, 3]: 83.3%
EC50 [1]: 17.7 nM
Emax [2]: 172%
EC50 [2]: 3040 nM

CCCNC(=S)Nc1ccc2c(c1)C1C3CCC(C3)C1C(c1c(Cl)cccc1Cl)N2 (centres unmarked) [(27), Bridged 1-(6-(2,6-dichlorophenyl)-5,6,6a,7,8,9,10,10a-octahydrophenanthridin-2-yl)-3-propylthiourea]
Emax [1, 3]: < 40%
EC50 [1]: > 10000 nM
Emax [2]: < 40%
EC50 [2]: > 10000 nM

CC(=O)Nc1ccc2c(c1)C1C3CCC(C3)C1C(c1c(Cl)cccc1Cl)N2 (centres unmarked) [(24), Bridged N-(6-(2,6-dichlorophenyl)-5,6,6a,7,8,9,10,10a-octahydrophenanthridin-2-yl)acetamide]
Emax [1, 3]: < 40%
EC50 [1]: > 10000 nM
Emax [2]: < 40%
EC50 [2]: > 10000 nM

O=C(CC1CCCO1)Nc1ccc2c(c1)C1C3CCC(C3)C1C(c1ccccc1)N2 (centres unmarked) [(14), Bridged N-(6-phenyl-5,6,6a,7,8,9,10,10a-octahydrophenanthridin-2-yl)-2-(tetrahydrofuran-2-yl) acetamide]
Emax [1, 3]: 92%
EC50 [1]: 9.1 nM
Emax [2]: < 40%
EC50 [2]: > 10000 nM

CN(C)S(=O)(=O)c1ccc2c(c1)C1C3CCC(C3)C1C(c1cncnc1)N2 (centres unmarked) [(30), Bridged N,N-dimethyl-6-(pyrimidin-5-yl)-5,6,6a,7,8,9,10,10a-octahydrophenanthridine-2-sulfonamide]
Emax [1, 3]: 99.3%
EC50 [1]: 72.8 nM
Emax [2]: < 40%
EC50 [2]: > 10000 nM

CCC1Nc2ccc(NC(=O)C3CC3)cc2C2C3CCC(C3)C12 (centres unmarked) [(21), Bridged N-(6-ethyl-5,6,6a,7,8,9,10,10a-octahydrophenanthridin-2-yl)cyclopropanecarboxamide]
Emax [1, 3]: 84%
EC50 [1]: 1200 nM
Emax [2]: < 40%
EC50 [2]: > 10000 nM

Cc1ccc(C2Nc3ccc(NC(=O)C4CC4)cc3C3C4CCC(C4)C23)cc1 (centres unmarked) [(22), Bridged N-(6-p-tolyl-5,6,6a,7,8,9,10,10a-octahydrophenanthridin-2-yl)cyclopropanecarboxamide]
Emax [1, 3]: 53%
EC50 [1]: 14 nM
Emax [2]: 115%
EC50 [2]: 1810 nM

CS(=O)(=O)N(c1ccc2c(c1)C1C3CCC(C3)C1C(c1ccccc1)N2)S(C)(=O)=O (centres unmarked) [(52), Bridged N-(methylsulfonyl)-N-(6-phenyl-5,6,6a,7,8,9,10,10a-octahydrophenanthridin-2-yl)methanesulfonamide]
Emax [1, 3]: 102%
EC50 [1]: 0.63 nM
Emax [2]: < 40%
EC50 [2]: > 10000 nM

O=S(=O)(c1ccc2c(c1)C1C3CCC(C3)C1C(c1ccccc1)N2)N1CCCC1 (centres unmarked) [(41), Bridged 6-phenyl-2-(pyrrolidin-1-ylsulfonyl)-5,6,6a,7,8,9,10,10a-octahydrophenanthridine]
Emax [1, 3]: 104%
EC50 [1]: 0.81 nM
Emax [2]: < 40%
EC50 [2]: > 10000 nM

CC(=O)Nc1ccc2c(c1)C1C3CCC(C3)C1C(c1ccccc1)N2 (centres unmarked) [(23), Bridged N-(6-phenyl-5,6,6a,7,8,9,10,10a-octahydrophenanthridin-2-yl)acetamide]
Emax [1, 3]: 82%
EC50 [1]: 43 nM
Emax [2]: 88%
EC50 [2]: 2610 nM

Cc1ccc(C2Nc3ccc(NC(=O)CC4CCCO4)cc3C3C4CCC(C4)C23)cc1 (centres unmarked) [(16), Bridged 2-(tetrahydrofuran-2-yl)-N-(6-p-tolyl-5,6,6a,7,8,9,10,10a-octahydrophenanthridin-2-yl)acetamide]
Emax [1, 3]: 52%
EC50 [1]: 102 nM
Emax [2]: < 40%
EC50 [2]: > 10000 nM

O=S(=O)(c1ccc2c(c1)C1CC=CC1C(c1ccccc1)N2)N1CCCCC1 (centres unmarked) [(48), 4-phenyl-8-(piperidin-1-ylsulfonyl)-3a,4,5,9b-tetrahydro-1H-cyclopenta[c]quinoline]
Emax [1, 3]: 82.3%
EC50 [1]: 73.9 nM
Emax [2]: < 40%
EC50 [2]: > 10000 nM

CN(C1CCCCC1)S(=O)(=O)c1ccc2c(c1)C1C3CCC(C3)C1C(c1ccccc1)N2 (centres unmarked) [(38), Bridged N-cyclohexyl-N-methyl-6-phenyl-5,6,6a,7,8,9,10,10a-octahydrophenanthridine-2-sulfonamide]
Emax [1, 3]: 79.5%
EC50 [1]: 8.5 nM
Emax [2]: < 40%
EC50 [2]: > 10000 nM

CCCCC(=O)Nc1ccc2c(c1)C1C3CCC(C3)C1C(c1ccccc1)N2 (centres unmarked) [Compound (4d), Bridged N-(6-phenyl-5,6,6a,7,8,9,10,10a-octahydrophenanthridin-2-yl)pentanamide]
Emax [1, 3]: 92%
EC50 [1]: 6.9 nM
Emax [2]: < 40%
EC50 [2]: > 10000 nM

CC(C)S(=O)(=O)N1c2ccc(S(=O)(=O)N(C)C)cc2C2C3CCC(C3)C2C1c1ccccc1 (centres unmarked) [(50), Bridged 5-(isopropylsulfonyl)-N,N-dimethyl-6-phenyl-5,6,6a,7,8,9,10,10a-octahydrophenanthridine-2-sulfonamide]
Emax [1, 3]: 81.2%
EC50 [1]: 1500 nM
Emax [2]: < 40%
EC50 [2]: > 10000 nM

CCCNC(=O)Nc1ccc2c(c1)C1C3CCC(C3)C1C(c1ccccc1)N2 (centres unmarked) [Compound (5d), Bridged 1-(6-phenyl-5,6,6a,7,8,9,10,10a-octahydrophenanthridin-2-yl)-3-propylurea]
Emax [1, 3]: 73%
EC50 [1]: 289 nM
Emax [2]: 46%
EC50 [2]: 2150 nM
